Source: patent publication US10596172B2 (Celgene CAR LLC, priority 2008, dated 2020)

Legend:
BTK [1] = target: T1, BTK (Homo sapiens (Human), UniProt Q06187); experiment: Washout experiment with Ramos cells; type: cell-based; conditions: 100 nM compound 1 hour, then washout
Method in brief: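 Serum-starved Ramos cells (1 h, 37° C) exposed to 100 nM compound for 1 hour, then washed into compound-free media every 2 hours. At set timepoints cells were stimulated with 1 ug anti-human IgM for 10 minutes on ice. BTK activity was read as PLCγ2 phosphorylation by phospho-specific western blot.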

BTK [2] = target: T1, BTK; experiment: BTK occupancy from in vitro samples by ELISA (Ramos cells); type: cell-based
Method: In order to determine the amount of free BTK in cell or tissue lysates, an ELISA protocol was employed that utilizes a biotinylated probe compound that binds only to free, unoccupied BTK. The conjugated biotin is captured on a streptavidin-coated ELISA plate and detected with a mouse anti-BTK antibody (Becton Dickinson, Franklin Lakes, N.J., USA) and a secondary goat anti-mouse HRP antibody (Zymed, South San Francisco, Calif., USA).
All samples were prepared with equal concentrations of Biorad lysis buffer (Hercules, Calif., USA), 0.5% bovine serum albumin in PBS with 0.05% Tween-20 to give a final concentration of 1 μM I-215. Samples were incubated in a mixing plate for 1 hr at room temperature while shaking to allow probe compound I-215 to bind to free BTK. After incubation with I-215, samples were added to a washed, streptavidin-coated ELISA plate (Pierce, Rockford, Ill., USA) and incubated for 1 hr at room temperature while shaking. The plate was then washed with PBS containing 0.05% Tween-20 using an automatic plate washer. Anti-BTK antibody was prepared at 1:1000 dilution in 0.5% BSA in PBS (0.05% Tween-20) and added to the ELISA plate. The plate was incubated for 1 hr at room temperature while shaking. The plate was washed as described above and the secondary HRP antibody was prepared at 1:5000 dilution in 0.5% BSA in PBS (0.05% Tween-20). The plate was incubated and washed as described above. TMB was added to the plate, and OD650 was monitored until reaching 1 OD unit. The reaction was then stopped with addition of H2SO4. The plate was analyzed using Gen 5 software, and a 4 Parameter Logistic curve was employed to quantitate samples. Recombinant BTK (Invitrogen, Carlsbad, Calif., USA) was used for the standard curve.
A concentration designated as “A” is greater than 1 nM; a concentration designated as “B” is greater than 10 nM; and a concentration designated as “C” is greater than 50 nM.

JAK3 = JAK3 (Homo sapiens (Human), UniProt P52333); experiment: Mass spectrometry for Janus-3 kinase (JAK3); type: binding; conditions: 3 hrs at 10x excess, tryptic digest
JAK3, sequence (P52333 whole entry): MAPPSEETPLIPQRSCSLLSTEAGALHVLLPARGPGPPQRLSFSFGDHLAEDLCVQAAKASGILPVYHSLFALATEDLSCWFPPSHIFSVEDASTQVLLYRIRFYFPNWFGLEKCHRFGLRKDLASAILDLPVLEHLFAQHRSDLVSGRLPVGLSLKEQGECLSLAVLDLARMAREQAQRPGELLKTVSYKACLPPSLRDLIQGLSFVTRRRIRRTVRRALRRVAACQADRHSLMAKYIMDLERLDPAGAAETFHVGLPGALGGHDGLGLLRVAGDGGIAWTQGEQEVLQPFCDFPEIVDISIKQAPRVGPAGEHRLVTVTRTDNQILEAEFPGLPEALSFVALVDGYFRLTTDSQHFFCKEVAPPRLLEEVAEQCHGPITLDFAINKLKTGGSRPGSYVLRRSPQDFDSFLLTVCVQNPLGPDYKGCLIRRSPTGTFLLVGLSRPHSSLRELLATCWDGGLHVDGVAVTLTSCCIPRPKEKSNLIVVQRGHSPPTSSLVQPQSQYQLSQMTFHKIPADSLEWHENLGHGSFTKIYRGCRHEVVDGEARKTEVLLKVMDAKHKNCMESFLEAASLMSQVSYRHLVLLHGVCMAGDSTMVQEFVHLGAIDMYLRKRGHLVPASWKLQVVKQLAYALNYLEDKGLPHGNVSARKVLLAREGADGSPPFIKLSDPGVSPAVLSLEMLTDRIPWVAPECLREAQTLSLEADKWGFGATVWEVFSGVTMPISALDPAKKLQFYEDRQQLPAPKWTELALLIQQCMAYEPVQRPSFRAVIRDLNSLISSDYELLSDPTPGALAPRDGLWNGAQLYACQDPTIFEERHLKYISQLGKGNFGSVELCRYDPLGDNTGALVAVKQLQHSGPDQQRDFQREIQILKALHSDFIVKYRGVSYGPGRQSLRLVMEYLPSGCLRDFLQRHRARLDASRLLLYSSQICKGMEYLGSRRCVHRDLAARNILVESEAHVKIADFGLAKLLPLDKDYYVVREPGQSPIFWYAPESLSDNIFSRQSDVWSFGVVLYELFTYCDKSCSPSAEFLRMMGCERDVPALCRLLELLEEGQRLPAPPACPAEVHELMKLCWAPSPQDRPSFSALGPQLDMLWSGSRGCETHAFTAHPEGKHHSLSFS
Method: JAK3 kinase (33 pmols; Invitrogen) was incubated with (I-7) (327 pmols) for 3 hrs at 10× excess prior to tryptic digestion. Iodoacetamide was used as the alkylating agent after compound incubation. For tryptic digests a 5 ul aliquot (5.5 pmols) was diluted with 15 ul of 0.1% TFA prior to micro C18 Zip Tipping directly onto the MALDI target using alpha cyano-4-hydroxy cinnamic acid as the matrix (5 mg/ml in 0.1% TFA:Acetonitrile 50:50).
As depicted in FIG. 11, the expected peptide ([…]) to be modified was immediately evident as the largest peak at MH+ of 1725.88. This is the mass to be expected when compound I-7, with an adduct mass of 345.16, is added to the peptide mass of 1380.70. […] There was also evidence for a number of other modified peptides, however, their signals were low.
To further verify the presence of the modified peptides with compound I-7, the peptides at MH+ of 1725.88 and 1118.55 were subjected to PSD (MS/MS) analysis. A correlational analysis with the homo sapien database identified the correct peptides as being modified by I-7.
For tryptic digests the instrument was set in Reflectron mode with a pulsed extraction setting of 2200. Calibration was done using the Laser Biolabs Pep Mix standard ([…], 1296.69, 1672.92, 2093.09, 2465.20). […]

BTK [3] = target: T1, BTK; experiment: BTK occupancy in Ramos cells with I-7 and probe I-215 using streptavidin beads; type: cell-based; conditions: 1 hour, higher concentrations of I-7 (above 10 nM)
Method: Ramos cells were incubated with 0.1, 0.05, 0.01, or 0.001 μM I-7 in serum free media for 1 hour at 37° C. The cells were pelleted by centrifugation and lysed in Cell Extraction buffer (Invitrogen) for 10 minutes on ice, centrifuged (10 minutes at 14,000 rpm) and the supernatant was collected. Cell lysates were incubated with 1 μM I-215 for 1 hour at room temperature, then incubated with streptavidin-coupled agarose beads (ThermoFisher) overnight at 4° C. The beads were washed three times with lysis buffer and the bound proteins were boiled off the beads at 95° C. for 5 minutes in 4×LDS Sample Buffer. The amount of BTK associated with the probe I-215 was assessed by BTK western blot. All values were normalized to the DMSO-treated sample which is set to 100%.

Erbb4 kinase domain = Erbb4 kinase domain (Homo sapiens (Human), UniProt Q15303); experiment: Mass spectrometry for ERBB4; type: binding; conditions: 60 minutes at 10-fold excess of compound
Erbb4 kinase domain, sequence (Q15303 718-985): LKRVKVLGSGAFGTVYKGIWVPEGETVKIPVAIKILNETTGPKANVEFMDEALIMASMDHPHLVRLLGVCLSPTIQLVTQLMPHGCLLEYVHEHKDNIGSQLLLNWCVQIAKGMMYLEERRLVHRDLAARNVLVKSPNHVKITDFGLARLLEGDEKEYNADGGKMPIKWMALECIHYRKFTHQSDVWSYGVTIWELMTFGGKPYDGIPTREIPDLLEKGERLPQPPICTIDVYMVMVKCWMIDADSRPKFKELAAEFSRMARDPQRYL
Method: Erbb4 kinase domain (Upstate) was incubated with compound for 60 minutes at 10-fold excess of compound I-4 and I-11 to protein. 1 μl aliquots of the samples (total volume of 4.24 ul) were diluted with 10 μl of 0.1% TFA prior to micro C4 ZipTipping directly onto the MALDI target using Sinapinic acid as the desorption matrix (10 mg/ml in 0.1% TFA:Acetonitrile 50:50). For intact protein mass measurement the instrument was set in Linear mode using a pulsed extraction setting of 16,952 for the myoglobin standard used to calibrate the instrument (Shimadzu Axima TOF^2).
Intact ErbB4 protein occurs at MH+ of 35850 with corresponding sinapinic (matrix) adducts occurring about 200 Da higher. A stoichiometric incorporation of the test compound (I-4 and I-11) (Mw of 410 Da) produced a new mass peak which is approximately 410 Da higher (MH+ of 36260).

T1 sequence (Q06187 whole entry): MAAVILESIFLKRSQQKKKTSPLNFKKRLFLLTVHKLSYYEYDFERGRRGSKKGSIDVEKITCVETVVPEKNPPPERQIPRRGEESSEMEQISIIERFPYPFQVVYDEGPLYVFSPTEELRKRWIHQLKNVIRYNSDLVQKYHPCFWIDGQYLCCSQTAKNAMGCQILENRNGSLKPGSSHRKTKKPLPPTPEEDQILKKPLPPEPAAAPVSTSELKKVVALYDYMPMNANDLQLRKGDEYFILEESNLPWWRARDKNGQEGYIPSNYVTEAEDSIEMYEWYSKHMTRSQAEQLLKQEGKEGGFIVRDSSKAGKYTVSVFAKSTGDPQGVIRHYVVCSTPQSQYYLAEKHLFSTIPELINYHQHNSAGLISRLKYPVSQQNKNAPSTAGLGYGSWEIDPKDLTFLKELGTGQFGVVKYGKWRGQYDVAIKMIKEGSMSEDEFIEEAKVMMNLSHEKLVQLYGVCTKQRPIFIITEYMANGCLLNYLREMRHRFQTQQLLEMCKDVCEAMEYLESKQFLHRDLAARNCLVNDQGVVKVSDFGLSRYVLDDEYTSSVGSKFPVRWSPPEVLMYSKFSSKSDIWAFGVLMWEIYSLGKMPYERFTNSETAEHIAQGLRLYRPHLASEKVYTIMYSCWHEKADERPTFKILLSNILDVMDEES

SMILES | BTK Inhibition Type (BTK [1]) | >50% occupancy (concentration at which >50% of BTK is occupied) (BTK [2]) | >90% occupancy (concentration at which >90% of BTK is occupied) (BTK [2]) | covalent modification of JAK3 peptide LVMEYLPSGCLR (Cys909) by mass spectrometry (JAK3) | BTK occupancy (BTK available to probe I-215) (BTK [3]) | covalent modification of ErbB4 by mass spectrometry (Erbb4 kinase domain)
C=CC(=O)Nc1cccc(Nc2nc(Nc3ccccc3)ncc2C)c1 [Compound I-7, N-(3-(5-methyl-2-(phenylamino)pyrimidin-4-ylamino)phenyl)acrylamide] | irreversible | A (greater than 1 nM) | B (greater than 10 nM) | not entirely complete | fully occupied | –
Cc1cccc(Nc2nc(Nc3cccc(NC(=O)/C=C/CN(C)C)c3)ncc2F)c1 [Compound I-4, (E)-4-(dimethylamino)-N-(3-(5-fluoro-4-(m-tolylamino)pyrimidin-2-ylamino)phenyl)but-2-enamide] | irreversible | – | – | – | – | covalent modification
